Experimental data taken from EP1979351B1, “6-PHENYL-1H-IMIDAZO[4, 5-C]PYRIDINE-4-CARBONITRILE DERIVATIVES AS CATHEPSIN K AND S INHIBITORS” (N.V. Organon, priority 2006, dated 2007).

Target: recombinant human Cathepsin S (Homo sapiens, UniProt P25774)
Assay: Cathepsin S assay procedure: inhibition of enzyme activity, fluorescence of liberated aminomethylcoumarin
Format: biochemical
Settings: activated recombinant human cathepsin S; substrate Z-Val-Val-Arg-AMC; sodium acetate pH5.5; fluorescence at 20 minutes; dose response curve; read-out: pIC50 (negative logarithm of the IC50 concentration) for inhibition of human cathepsin S (converted)
Protocol: 25µl of a 2mg/l solution of activated recombinant human cathepsin S, in assay buffer, is then added to the well, yielding a final inhibitor concentration of 10µM.
Enzyme activity is determined by measuring the fluorescence of the liberated aminomethylcoumarin at […] using 390nm excitation, at 20 minutes. Percentage enzyme activity is calculated by comparison of this activity to that of a solution containing no inhibitor.

Chain of recombinant human Cathepsin S (P25774 115-331): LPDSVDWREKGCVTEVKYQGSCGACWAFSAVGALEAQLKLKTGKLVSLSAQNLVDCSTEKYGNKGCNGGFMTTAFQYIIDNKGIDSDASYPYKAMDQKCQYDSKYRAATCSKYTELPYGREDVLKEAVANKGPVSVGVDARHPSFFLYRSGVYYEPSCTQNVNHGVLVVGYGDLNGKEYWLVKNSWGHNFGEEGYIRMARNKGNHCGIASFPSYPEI

Compound	IC50
CCOc1ccc(-c2cc3c(ncn3CCCC(=O)O)c(C#N)n2)cc1C(F)(F)F [Example 4, [4-Cyano-6-(4-ethoxy-3-trifluoromethyl-phenyl)-imidazo[4,5-c]pyridin-1-yl]-butyric acid]	< 0.1 µM
CCOc1ccc(-c2cc3[nH]c(CN4CCN(CCO)CC4)nc3c(C#N)n2)cc1C(F)(F)F [Example 13l, 6-(4-Ethoxy-3-trifluoromethyl-phenyl)-2-[4-(2-hydroxy-ethyl)-piperazin-1-ylmethyl]-1H-imidazo[4,5-c]pyridine-4-carbonitrile]	< 0.1 µM
